Assay results reported in article PMC6792352, “Limited Chemical Structural Diversity Found to Modulate Thyroid Hormone Receptor in the Tox21 Chemical Library” (Environmental Health Perspectives, 2019).
Counter-ions that a name gives are not always drawn.

Experiment: in vitro
Settings: rat, gh3-tre-luc cells, AC50 (uM) modified / 1000
Compound `CN(C)CCCSc1ccccc1NC(=O)/C=C/c1ccccc1` [Cinanserin] has a CC50 at 24 h of 22.6 µM.
Work on `CCCCCCC1CCC(=O)O1` (centres unmarked) [gamma-Decanolactone] yielded a CC50 at 24 h of over 90 µM.
Compound `CC(=O)c1ccc2c(c1)N(CCCN1CCN(CCO)CC1)c1ccccc1S2` [Acetophenazine dimaleate] has a CC50 at 24 h of 16.5 µM.
For `O=C(O)c1c(Cl)cccc1Cl` [2,6-Dichlorobenzoic acid], the CC50 at 24 h was over 90 µM.
In the case of `C[C@@H](C1=C(CCN(C)C)Cc2ccccc21)c1ccccn1` [(S)-(+)-Dimethindene maleate], the CC50 at 24 h is reported as 42.1 µM.
With `O=C(O)c1ccco1` [2-Furancarboxylic acid] the CC50 at 24 h was over 90 µM.
For `CC(Cc1ccc(O)cc1)NCC(O)c1cc(O)cc(O)c1` (centres unmarked) [Fenoterol hydrobromide], the CC50 at 24 h was over 50 µM.
With `CC(C)CCCCCOC(=O)CS` [Isooctyl 2-mercaptoacetate] the CC50 at 24 h was over 90 µM.
`N[C@H](C(=O)O)[C@H](O)c1ccc(O)c(O)c1` [Droxidopa] gave a CC50 at 24 h of over 50 µM.
`COc1ccc(NC(C)=O)cc1` [N-(4-Methoxyphenyl)acetamide] showed a CC50 at 24 h of over 90 µM.
With `C[C@@H](N)C(=O)c1ccccc1` [(R)-(+)-Cathinone hydrochloride] the CC50 at 24 h was over 100 µM.
For `CCCC(=O)C(C)=O` [2,3-Hexanedione], the CC50 at 24 h was over 90 µM.
In the case of `CCN(CC)CCCC(C)Nc1cc(/C=C/c2ccccc2Cl)nc2cc(Cl)ccc12` (centres unmarked) [Aminoquinol], the CC50 at 24 h is reported as 20.1 µM.
`COS(=O)(=O)O` [Sodium methyl sulfate] showed a CC50 at 24 h of over 90 µM.
With `CN[C@@H]1[C@H](O[C@H]2[C@H](O[C@H]3[C@H](O)[C@@H](O)[C@H](NC(=N)N)[C@@H](O)[C@@H]3NC(=N)N)O[C@@H](C)[C@]2(O)CO)O[C@@H](CO)[C@H](O)[C@H]1O` [Dihydrostreptomycin sulfate] the CC50 at 24 h was over 50 µM.
`Cc1ccc2c(c1)C(=O)c1ccccc1C2=O` [2-Methylanthraquinone] showed a CC50 at 24 h of over 90 µM.
Compound `C[C@@H](NCCc1ccc(O)cc1)[C@@H](O)c1ccc(O)cc1` (racemic) [Ritodrine hydrochloride] has a CC50 at 24 h of over 50 µM.
For `CCc1ccc(O)cc1` [4-Ethylphenol], the CC50 at 24 h was over 90 µM.
`CC[N+](C)(CC)CCOC(=O)C1c2ccccc2Oc2ccccc21` [Methantheline bromide] gave a CC50 at 24 h of over 50 µM.
`CN1CCCC(CN2c3ccccc3Sc3ccccc32)C1` (centres unmarked) [Pecazine] gave a CC50 at 24 h of 16.4 µM.
`O=c1[nH]c2ccccc2n1CCCN1CCN(C(c2ccccc2)c2ccccc2)CC1` [Oxatomide] gave a CC50 at 24 h of 20.3 µM.
With `CCC(C)n1c(=O)[nH]c(C)c(Br)c1=O` (centres unmarked) [Bromacil] the CC50 at 24 h was over 90 µM.
`CC(=O)O[C@]1(C(C)=O)CC[C@H]2[C@@H]3CCC4=CC(=O)CC[C@]4(C)[C@@]3(F)[C@@H](O)C[C@@]21C` [Flurogestone acetate] gave a CC50 at 24 h of over 50 µM.
Compound `CC(C)c1cccc(C(C)C)c1O` [Propofol] has a CC50 at 24 h of over 90 µM.
Compound `C=CCn1cc[n+](C)c1` [1-Allyl-3-methylimidazolium chloride] has a CC50 at 24 h of over 90 µM.
Compound `Oc1ccccc1Cc1ccccc1O` [2,2'-Bisphenol F] has a CC50 at 24 h of over 90 µM.
In the case of `CC(=O)Oc1c(C)cc(OCC(O)CNC(C)C)c(C)c1C` (centres unmarked) [Metipranolol], the CC50 at 24 h is reported as over 50 µM.
Work on `CCCCCCCCOS(=O)(=O)O` [Sodium octyl sulfate] yielded a CC50 at 24 h of over 90 µM.
`CCCCCCCCCCCCCCNCCO` [Myralact] showed a CC50 at 24 h of over 50 µM.
For `CC1=CC(=O)CC(C)(C)[C@@]1(O)/C=C/C(C)=C\C(=O)O` [Abscisic acid], the CC50 at 24 h was over 90 µM.
Compound `CNCCO` [N-Methylethanolamine] has a CC50 at 24 h of over 90 µM.
`CCCOc1sc(C(=O)N2CCC(c3cc(CN)ccc3F)CC2)c(C)c1Br` [AVE8923] showed a CC50 at 24 h of 3.52 µM.
Compound `CC(CCO)CCc1ccccc1` (centres unmarked) [3-Methyl-5-phenylpentan-1-ol] has a CC50 at 24 h of over 90 µM.

Same assay, conditions: rat, gh3-tre-luc cells, AC50 (uM) modified / 1000, Tox21_110001=Tox21_110149; viability, 1 nM T3 present, 24 h
`CCCCc1ccc(C(=O)O)nc1` [Fusaric acid] gave a CC50 at 24 h of over 50 µM.

Same assay, conditions: rat, gh3-tre-luc cells, AC50 (uM) modified / 1000, Tox21_110001=Tox21_111607; viability, 1 nM T3 present, 24 h
With `CC1OC(C)OC(C)O1` (centres unmarked) [Paraldehyde] the CC50 at 24 h was over 50 µM.

Same assay, conditions: rat, gh3-tre-luc cells, AC50 (uM) modified / 1000, Tox21_110001=Tox21_113424; viability, 1 nM T3 present, 24 h
With `C[C@]12CCC(=O)C[C@@H]1CC[C@@H]1[C@@H]2CC[C@@]2(C)[C@H]1CC[C@]2(C)O` [Mestanolone] the CC50 at 24 h was over 50 µM.

Same assay, conditions: rat, gh3-tre-luc cells, AC50 (uM) modified / 1000, Tox21_110001=Tox21_301299; viability, 1 nM T3 present, 24 h
For `CC1OC(C)OC(C)O1` (centres unmarked) [Paraldehyde], the CC50 at 24 h was over 90 µM.

Same assay, conditions: rat, gh3-tre-luc cells, AC50 (uM) modified / 1000, Tox21_110001=Tox21_302658; viability, 1 nM T3 present, 24 h
For `CC(=O)CCc1ccc2c(c1)OCO2` [Piperonyl acetone], the CC50 at 24 h was over 90 µM.
